Results taken from ChEMBL document CHEMBL1201862, “PubChem BioAssay data set” (2004).
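Test compounds were applied to cells in 96-well plates for 48 hours at 5 doses. Here, GI50 denotes the concentration required for 50% inhibition of growth.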 Calls of active or inactive are those of the source. Cut-off read from the data, not from the text of the source: active = GI50 up to about 1.1 µM and inactive = higher.

How the values were obtained:
Assay in all cases: growth of human tumour cells (NCI), 48 h
[1] = tested on: SN12C
[2] = tested on: PC-3
[3] = tested on: IGROV-1
[4] = tested on: OVCAR-3
[5] = tested on: NCI-H522
[6] = tested on: SW-620
[7] = tested on: SK-MEL-5
[8] = tested on: OVCAR-8
[9] = tested on: UO-31
[10] = tested on: HT-29
[11] = tested on: SK-MEL-28
[12] = tested on: SR
[13] = tested on: MDA-N
[14] = tested on: NCI-H460
[15] = tested on: 786-0
[16] = tested on: SF-268
[17] = tested on: ACHN
[18] = tested on: RXF 393
[19] = tested on: Hs-578T

Measured: GI50

CC(=O)NC(C)(C)C1CC=C(C)/C(=N\O)C1 (stereo not given)
inactive: [1] > 100 µM | [2] > 100 µM | [3] > 100 µM | [4] > 100 µM | [5] > 100 µM | [6] > 100 µM | [7] > 100 µM | [8] > 100 µM | [9] > 100 µM | [10] > 100 µM | [11] > 100 µM | [12] > 100 µM | [13] > 100 µM | [14] > 100 µM | [15] > 100 µM | [16] > 100 µM

NS(=O)(=O)c1ccc(Nc2c3ccccc3nc3c(C(=O)N4CCN(CCO)CC4)cccc23)cc1
inactive: [1] > 100 µM | [3] > 100 µM | [17] > 100 µM | [4] > 100 µM | [5] 80.9 µM | [6] > 100 µM | [7] > 100 µM | [18] > 100 µM | [8] > 100 µM | [9] > 100 µM | [10] 71.8 µM | [11] > 100 µM | [12] 74.1 µM | [14] > 100 µM | [15] > 100 µM | [16] > 100 µM

CN(C)CCNc1c([N+](=O)[O-])sc2ccc(Cl)cc12
inactive: [1] 7.66 µM | [2] 13.4 µM | [3] 26.1 µM | [17] 6.01 µM | [4] > 100 µM | [19] 21.3 µM | [5] 10.8 µM | [6] 3.77 µM | [7] 26.2 µM | [18] 19.1 µM | [8] 17.3 µM | [9] 20 µM | [10] 5.89 µM | [11] > 100 µM | [12] > 100 µM | [14] 5.38 µM | [15] 12.2 µM | [16] 18.3 µM

Cc1cc2oc(=O)[nH]c(=S)c2c(C)c1C
inactive: [1] > 100 µM | [3] > 100 µM | [17] > 100 µM | [4] > 100 µM | [5] > 100 µM | [6] > 100 µM | [18] > 100 µM | [8] > 100 µM | [9] > 100 µM | [10] > 100 µM | [11] > 100 µM | [12] > 100 µM | [14] > 100 µM | [15] > 100 µM | [16] > 100 µM

COc1ccc(NC(=O)CC(=O)N2N=C(N(c3ccccc3)c3ccccc3)CC2c2ccccc2)cc1 (stereo not given)
inactive: [1] > 100 µM | [2] > 100 µM | [3] > 100 µM | [17] > 100 µM | [4] > 100 µM | [19] 98.4 µM | [5] > 100 µM | [6] > 100 µM | [18] > 100 µM | [8] > 100 µM | [9] > 100 µM | [10] > 100 µM | [11] > 100 µM | [15] > 100 µM | [16] > 100 µM

CC(=O)Nc1nnc(S(C)(=O)=O)s1
inactive: [1] > 100 µM | [2] > 100 µM | [17] > 100 µM | [4] > 100 µM | [6] > 100 µM | [18] > 100 µM | [8] > 100 µM | [9] > 100 µM | [10] > 100 µM | [11] > 100 µM | [12] > 100 µM | [13] > 100 µM | [14] > 100 µM | [15] > 100 µM | [16] > 100 µM
